Where “and” joins values, the source holds several entries; their conditions need not be identical. Equal entries are not always repeated. Inconclusive results and toxic doses are left out. How the source made its calls: active means survival T/C of 150% or more; inactive means T/C below 125% in these data.
Test system: CD2F1 mice, L1210 leukemia ip, survival T/C
Assay: NCI In Vivo Anticancer Drug Screen. Data for tumor model L1210 Leukemia (intraperitoneal) in CD2F1 (CDF1) mice
Settings: higher = longer survival
Procedure, shortened: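 Read-out first: treated-group measurement over vehicle-control measurement, expressed as a ratio. Animals bore a transplanted tumor line and were dosed with compound or vehicle.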

[1] = endpoint: mean survival time, dose: 12.5 mg/kg/injection, schedule: Q01DX005 (ip), vehicle: other
[2] = endpoint: mean survival time, dose: 25.0 mg/kg/injection, schedule: Q01DX005 (ip), vehicle: other
[3] = endpoint: mean survival time, dose: 50.0 mg/kg/injection, schedule: Q01DX005 (ip), vehicle: other
[4] = endpoint: mean survival time, dose: 100.0 mg/kg/injection, schedule: Q01DX005 (ip), vehicle: other
[5] = endpoint: mean survival time, dose: 100.0 mg/kg/injection, schedule: Q01DX009 (ip), vehicle: saline with Tween-80
[6] = endpoint: mean survival time, dose: 200.0 mg/kg/injection, schedule: Q01DX009 (ip), vehicle: saline with Tween-80
[7] = endpoint: mean survival time, dose: 100.0 mg/kg/injection, schedule: Q04DX003 (ip), vehicle: saline with Tween-80
[8] = endpoint: mean survival time, dose: 200.0 mg/kg/injection, schedule: Q04DX003 (ip), vehicle: saline with Tween-80
[9] = endpoint: mean survival time, dose: 400.0 mg/kg/injection, schedule: Q01DX009 (ip), vehicle: saline with Tween-80
[10] = endpoint: mean survival time, dose: 400.0 mg/kg/injection, schedule: Q04DX003 (ip), vehicle: saline with Tween-80

Measured: T/C

CN(N=O)C(=O)N[C@@H](C=O)[C@@H](O)[C@H](O)[C@H](O)CO
inactive: [1] 104 % of control | endpoint: mean survival time, dose: 19.6 mg/kg/injection, schedule: Q01DX009 (ip), vehicle: other 104 % of control | endpoint: mean survival time, dose: 25.0 mg/kg/injection, schedule: Q01DX001 (ip), vehicle: other 102 % of control and 103 % of control | [2] 112 % of control | endpoint: mean survival time, dose: 25.0 mg/kg/injection, schedule: Q04DX003 (ip), vehicle: other 102 % of control | endpoint: mean survival time, dose: 29.3 mg/kg/injection, schedule: Q01DX009 (ip), vehicle: other 107 % of control | endpoint: mean survival time, dose: 32.0 mg/kg/injection, schedule: Q03HX008 (ip), vehicle: other 98 % of control | endpoint: mean survival time, dose: 32.0 mg/kg/injection, schedule: Q03HX016 (ip), vehicle: other 98 % of control | endpoint: mean survival time, dose: 37.5 mg/kg/injection, schedule: Q01DX001 (ip), vehicle: other 107 % of control | endpoint: mean survival time, dose: 44.0 mg/kg/injection, schedule: Q01DX009 (ip), vehicle: other 117 % of control | endpoint: mean survival time, dose: 50.0 mg/kg/injection, schedule: Q01DX001 (ip), vehicle: other 94 % of control and 105 % of control | [3] 117 % of control | endpoint: mean survival time, dose: 50.0 mg/kg/injection, schedule: Q04DX003 (ip), vehicle: other 106 % of control | endpoint: mean survival time, dose: 64.0 mg/kg/injection, schedule: Q03HX008 (ip), vehicle: other 96 % of control | endpoint: mean survival time, dose: 64.0 mg/kg/injection, schedule: Q03HX016 (ip), vehicle: other 95 % of control | endpoint: mean survival time, dose: 75.0 mg/kg/injection, schedule: Q01DX001 (ip), vehicle: other 98 % of control | endpoint: mean survival time, dose: 100.0 mg/kg/injection, schedule: Q01DX001 (ip), vehicle: other 113 % of control and 103 % of control | [4] 116 % of control | endpoint: mean survival time, dose: 100.0 mg/kg/injection, schedule: Q01DX009 (ip), vehicle: saline 111 % of control | endpoint: mean survival time, dose: 100.0 mg/kg/injection, schedule: Q04DX003 (ip), vehicle: other 109 % of control | endpoint: mean survival time, dose: 128.0 mg/kg/injection, schedule: Q03HX008 (ip), vehicle: other 102 % of control | endpoint: mean survival time, dose: 128.0 mg/kg/injection, schedule: Q03HX016 (ip), vehicle: other 108 % of control | endpoint: mean survival time, dose: 150.0 mg/kg/injection, schedule: Q01DX001 (ip), vehicle: other 104 % of control | endpoint: mean survival time, dose: 200.0 mg/kg/injection, schedule: Q01DX001 (ip), vehicle: other 118 % of control and 124 % of control and 106 % of control | endpoint: mean survival time, dose: 200.0 mg/kg/injection, schedule: Q01DX009 (ip), vehicle: saline 103 % of control | endpoint: mean survival time, dose: 200.0 mg/kg/injection, schedule: Q04DX003 (ip), vehicle: other 120 % of control | endpoint: mean survival time, dose: 250.0 mg/kg/injection, schedule: Q01DX001 (ip), vehicle: other 109 % of control | endpoint: mean survival time, dose: 256.0 mg/kg/injection, schedule: Q03HX008 (ip), vehicle: other 108 % of control | endpoint: mean survival time, dose: 256.0 mg/kg/injection, schedule: Q03HX016 (ip), vehicle: other 113 % of control | endpoint: mean survival time, dose: 300.0 mg/kg/injection, schedule: Q01DX001 (ip), vehicle: other 119 % of control and 110 % of control | endpoint: mean survival time, dose: 350.0 mg/kg/injection, schedule: Q01DX001 (ip), vehicle: other 113 % of control | endpoint: mean survival time, dose: 400.0 mg/kg/injection, schedule: Q01DX001 (ip), vehicle: other 117 % of control and 102 % of control | endpoint: median survival time, dose: 21.6 mg/kg/injection, schedule: Q01DX009 (ip), vehicle: saline 100 % of control | endpoint: median survival time, dose: 36.0 mg/kg/injection, schedule: Q01DX009 (ip), vehicle: saline 102 % of control | endpoint: median survival time, dose: 60.0 mg/kg/injection, schedule: Q01DX009 (ip), vehicle: saline 109 % of control | endpoint: median survival time, dose: 100.0 mg/kg/injection, schedule: Q01DX009 (ip), vehicle: saline 110 % of control

Oc1ccccc1Br
inactive: endpoint: mean survival time, dose: 100.0 mg/kg/injection, schedule: Q01DX001 (ip), vehicle: saline 96 % of control | endpoint: mean survival time, dose: 200.0 mg/kg/injection, schedule: Q01DX001 (ip), vehicle: saline 93 % of control

CCC(C1=NC(C)(C)CC(C)O1)c1ccccc1 (stereo unspecified) (tested in a mixture with another compound)
inactive: [5] 102 % of control | [6] 93 % of control

CN(Cc1cnc2nc(N)nc(N)c2n1)c1ccc(C(=O)NC(CCC(=O)NC(CCC(=O)O)C(=O)O)C(=O)O)cc1 (stereo unspecified)
active: endpoint: mean survival time, dose: 2.5 mg/kg/injection, schedule: Q01DX009 (ip), vehicle: sodium bicarbonate 165 % of control
inactive: endpoint: mean survival time, dose: 5.0 mg/kg/injection, schedule: Q01DX009 (ip), vehicle: sodium bicarbonate 119 % of control | endpoint: mean survival time, dose: 10.0 mg/kg/injection, schedule: Q01DX009 (ip), vehicle: sodium bicarbonate 89 % of control

CN(CC[NH-])CC[NH-].[I][Pt]
inactive: endpoint: mean survival time, dose: 12.5 mg/kg/injection, schedule: Q04DX003 (ip), vehicle: saline with Tween-80 100 % of control | endpoint: mean survival time, dose: 25.0 mg/kg/injection, schedule: Q04DX003 (ip), vehicle: saline with Tween-80 94 % of control | endpoint: mean survival time, dose: 50.0 mg/kg/injection, schedule: Q04DX003 (ip), vehicle: saline with Tween-80 98 % of control | [7] 100 % of control | [8] 94 % of control

Cc1ccc(NC(=O)N(CCCl)N=O)cc1Cl
active: endpoint: mean survival time, dose: 13.0 mg/kg/injection, schedule: Q01DX001 (ip), vehicle: carboxymethylcellulose (CMC) 176 % of control

COc1ccc(/C=N/NC(=O)CNC(=O)Nc2cccc([N+](=O)[O-])c2)cc1
inactive: endpoint: mean survival time, dose: 50.0 mg/kg/injection, schedule: Q01DX009 (ip), vehicle: saline with Tween-80 89 % of control | [5] 93 % of control | [6] 93 % of control

Cc1ccc(C#N)c2c1CCC2
inactive: endpoint: mean survival time, dose: 100.0 mg/kg/injection, schedule: Q01DX001 (ip), vehicle: Klucel (hydroxypropylcellulose) (HPC) 103 % of control | endpoint: mean survival time, dose: 200.0 mg/kg/injection, schedule: Q01DX001 (ip), vehicle: Klucel (hydroxypropylcellulose) (HPC) 95 % of control | endpoint: mean survival time, dose: 400.0 mg/kg/injection, schedule: Q01DX001 (ip), vehicle: Klucel (hydroxypropylcellulose) (HPC) 103 % of control

CCC[S][Pb]([c]1ccccc1)([c]1ccccc1)[c]1ccccc1
inactive: endpoint: mean survival time, dose: 10.0 mg/kg/injection, schedule: Q01DX001 (ip), vehicle: Klucel (hydroxypropylcellulose) (HPC) 98 % of control | endpoint: mean survival time, dose: 20.0 mg/kg/injection, schedule: Q01DX001 (ip), vehicle: Klucel (hydroxypropylcellulose) (HPC) 101 % of control | endpoint: mean survival time, dose: 40.0 mg/kg/injection, schedule: Q01DX001 (ip), vehicle: Klucel (hydroxypropylcellulose) (HPC) 104 % of control

CCN(Cc1cnc2nc(N)nc(N)c2n1)c1c(Cl)cc(C(=O)NC(CCC(=O)O)C(=O)O)cc1Cl (stereo unspecified)
inactive: endpoint: mean survival time, dose: 3.12 mg/kg/injection, schedule: Q01DX009 (ip), vehicle: sodium bicarbonate 117 % of control | endpoint: mean survival time, dose: 6.25 mg/kg/injection, schedule: Q01DX009 (ip), vehicle: sodium bicarbonate 117 % of control
active: endpoint: mean survival time, dose: 100.0 mg/kg/injection, schedule: Q01DX009 (ip), vehicle: sodium bicarbonate 170 % of control

N#Cc1ccc(NN=O)nc1
inactive: endpoint: median survival time, dose: 3.12 mg/kg/injection, schedule: Q01DX005 (ip), vehicle: water 109 % of control | endpoint: median survival time, dose: 6.25 mg/kg/injection, schedule: Q01DX005 (ip), vehicle: water 120 % of control | endpoint: median survival time, dose: 12.5 mg/kg/injection, schedule: Q01DX005 (ip), vehicle: water 124 % of control | endpoint: median survival time, dose: 50.0 mg/kg/injection, schedule: Q01DX005 (ip), vehicle: water 95 % of control | endpoint: median survival time, dose: 69.4 mg/kg/injection, schedule: Q01DX005 (ip), vehicle: water 118 % of control
active: endpoint: median survival time, dose: 15.0 mg/kg/injection, schedule: Q01DX005 (ip), vehicle: water 152 % of control and 158 % of control | endpoint: median survival time, dose: 25.0 mg/kg/injection, schedule: Q01DX005 (ip), vehicle: water 164 % of control and 175 % of control | endpoint: median survival time, dose: 41.66 mg/kg/injection, schedule: Q01DX005 (ip), vehicle: water 191 % of control

CC(=O)N1C2=CCCC3CCCCC23c2ccccc21 (stereo unspecified)
inactive: [5] 103 % of control | [7] 96 % of control | [6] 101 % of control | [8] 92 % of control | [9] 98 % of control | [10] 101 % of control

CCCCCCC#CC(=O)OC
inactive: [5] 101 % of control | [7] 96 % of control | [6] 101 % of control | [8] 102 % of control | [10] 97 % of control

O=C(O)c1c2c(nc3c(Cl)cccc13)-c1ccccc1C2
inactive: [5] 102 % of control | [6] 107 % of control

CC(=O)C(C(c1ccccc1)C1CCCc2ccccc21)N1CCOCC1 (stereo unspecified)
inactive: [5] 104 % of control | [7] 103 % of control | [6] 98 % of control | [8] 100 % of control | [9] 95 % of control | [10] 101 % of control

CN(C)C(=O)c1ccc(Cl)c(Cl)c1
inactive: [5] 102 % of control | [6] 107 % of control

CC(=O)OCC1OC(n2cnc3c(Cl)ncnc32)C(OC(C)=O)C1OC(C)=O (stereo unspecified)
inactive: [1] 94 % of control | [2] 88 % of control | [3] 98 % of control | [4] 96 % of control | endpoint: mean survival time, dose: 200.0 mg/kg/injection, schedule: Q01DX005 (ip), vehicle: other 100 % of control | endpoint: mean survival time, dose: 400.0 mg/kg/injection, schedule: Q01DX005 (ip), vehicle: other 102 % of control

— PubChem BioAssay AID256 (DTP/NCI, 2004)
